Each structure is given as a SMILES string.

This assay relates to HBV. Put plainly: HBV-DNA Antiviral Assay Using HepG2.2.15 Cells. The format is cell-based. Conditions: extracellular HBV DNA by qPCR, day 7. The method, then:
The following assay procedure describes the HBV antiviral assay. This assay uses HepG2.2.15 cells, which have been transfected with HBV genome, and extracellular HBV DNA quantification as endpoint. Cell viability is assessed in parallel by measuring the intracellular ATP content using the CellTiter-Glo® reagent from Promega.
On day 0, HepG2.2.15 cells were seeded in 96-well plates at a density of 6.0×10^4 cells/well (0.1 mL/well). The cells were incubated at 37° C. and 5% CO2.
On day 1, the test articles were diluted and added to cell culture wells (8 concentrations, 4-fold dilution, in duplicate). GLS4, Tenofovir and Sorafenib were used as reference compounds. 100 μL of culture medium containing the compounds was added to the plate, and the final total volume per well was 200 μL. The final concentration of DMSO in the culture medium was 0.5%. The plate map of compound treatment is shown below. The cells were cultured at 37° C. and 5% CO2 for 3 days.
On day 4, the plates were refreshed with culture media with compounds.
On day 7, cell viability was assessed using the CellTiter-Glo®, and the cell culture supernatants were collected for determination of HBV DNA by qPCR.
Extracellular DNA was isolated with QIAamp 96 DNA Blood Kit per the manufacturer's manual. HBV DNA was then quantified by qPCR with HBV specific primers and probes as specified in Table 1 using the FastStart Universal MasterMix from Roche on an ABI-7900HT. The PCR cycle program consisted of 95° C. for 10 min, followed by 40 cycles at 95° C. for 15 sec and 60° C. for 1 min.
A DNA standard was prepared by dilution of the pAAV2 HBV1.3 plasmid with concentrations ranging from 10 to 1×10^7 copies/uL and used to generate a standard curve by plotting Ct value vs. the concentration of the HBV plasmid DNA standard. The quantity of HBV DNA in each sample was determined by interpolating from the standard curve.
Cell viability was calculated as follows: % Cell viability=(luminescence value of test sample−average luminescence value of blank)/(average luminescence value of 0.5% DMSO control−average luminescence of blank)×100%. HBV DNA inhibition was calculated as follows: 100-(HBV DNA copy number of test sample−HBV DNA copy number of ETV)/HBV DNA copy number of 0.5% DMSO control−HBV DNA copy number of ETV)×100%. The CC50, EC50 and EC90 values were determined by dose-response curves fitted by GraphPad Prism using “log (agonist) vs. response-Variable slope”.
(In general: In qPCR the cycle at which signal appears reflects the starting amount.)

The mark [1] stands for this setting: Hepatitis B virus, HepG2.2.15, 168 h.

One may read the EC50 as the concentration needed to bring the measured effect to its halfway point. Lower therefore signals greater potency. In turn, `O=C(c1ccc(Cl)c(Cl)c1)N1CCS(=O)(=O)C(c2cccs2)C1` (single isomer, unassigned) [Compound 8b, (3,4-dichlorophenyl)-[1,1-dioxo-2-(2-thienyl)-1,4-thiazinan-4-yl]methanone] yielded an EC50 of 100 to 500 nM.

For the compound `O=C(c1ccc(Cl)cc1Cl)N1CCS(=O)(=O)C(c2cccs2)C1` (stereo not shown) [Compound 11a, (2,4-dichlorophenyl)-[1,1-dioxo-2-(2-thienyl)-1,4-thiazinan-4-yl]methanone], the EC50 under setting [1] fell in the range of 500 to 5000 nM.

For `O=C(c1ccc(Br)c(Cl)c1)N1CCS(=O)(=O)C(c2cccs2)C1` (stereo not shown) [Compound 6a, (4-bromo-3-chloro-phenyl)-[1,1-dioxo-2-(2-thienyl)-1,4-thiazinan-4-yl]methanone], the EC50 under setting [1] is ≤ 100 nM.

For `Cn1cnc(-c2ccc(C3CN(C(=O)c4ccc(Br)c(Cl)c4)CCS3(=O)=O)s2)c1` (single isomer, unassigned) [Compound 16a, (4-bromo-3-chloro-phenyl)-[2-[5-(1-methylimidazol-4-yl)-2-thienyl]-1,1-dioxo-1,4-thiazinan-4-yl]methanone], the EC50 lay in the range of 100 to 500 nM.

Take `C[C@@H]1CS(=O)(=O)[C@@H](c2cccs2)CN1C(=O)Nc1ccc(F)c(Cl)c1` [Compound 22, (2R,5R)-N-(3-chloro-4-fluoro-phenyl)-5-methyl-1,1-dioxo-2-(2-thienyl)-1,4-thiazinane-4-carboxamide]: under setting [1], the EC50 was > 5000 nM.

As to `O=C(c1ccc(Cl)cc1F)N1CCS(=O)(=O)C(c2cccs2)C1` (stereo not shown) [Compound 10a, (4-chloro-2-fluoro-phenyl)-[1,1-dioxo-2-(2-thienyl)-1,4-thiazinan-4-yl]methanone], under setting [1], the EC50 was > 5000 nM.

The compound `O=C(c1ccc(Br)c(Cl)c1)N1CCS(=O)(=O)C(c2cccs2)C1` (stereo not shown) [Compound 6b, (4-bromo-3-chloro-phenyl)-[1,1-dioxo-2-(2-thienyl)-1,4-thiazinan-4-yl]methanone] came in with an EC50 of 100 to 500 nM.

In the case of `C[C@H]1CS(=O)(=O)[C@H](c2cccs2)CN1C(=O)c1ccc(Br)c(Cl)c1` [Compound 24, (4-bromo-3-chloro-phenyl)-[(2S,5S)-5-methyl-1,1-dioxo-2-(2-thienyl)-1,4-thiazinan-4-yl]methanone], the EC50 under setting [1] fell in the range of 100 to 500 nM.

For `Cn1cnc(-c2ccc(C3CN(C(=O)c4ccc(Br)c(Cl)c4)CCS3(=O)=O)s2)c1` (single isomer, unassigned) [Compound 16b, (4-bromo-3-chloro-phenyl)-[2-[5-(1-methylimidazol-4-yl)-2-thienyl]-1,1-dioxo-1,4-thiazinan-4-yl]methanone], the EC50 was 500 to 5000 nM.

Regarding `O=C(c1ccc(Cl)c(Cl)c1)N1CCS(=O)(=O)C(c2cccs2)C1` (single isomer, unassigned) [Compound 8a, (3,4-dichlorophenyl)-[1,1-dioxo-2-(2-thienyl)-1,4-thiazinan-4-yl]methanone], the EC50 fell in the range of 500 to 5000 nM.

The compound `Cc1cc(C(=O)N2CCS(=O)(=O)C(c3cccs3)C2)ccc1Cl` (single isomer, unassigned) [Compound 9b, (4-chloro-3-methyl-phenyl)-[1,1-dioxo-2-(2-thienyl)-1,4-thiazinan-4-yl]methanone] displayed an EC50 of 100 to 500 nM.

As to `Cc1cc(C(=O)N2CCS(=O)(=O)C(c3cccs3)C2)ccc1Cl` (single isomer, unassigned) [Compound 9a, (4-chloro-3-methyl-phenyl)-[1,1-dioxo-2-(2-thienyl)-1,4-thiazinan-4-yl]methanone], the EC50 was in the range of 500 to 5000 nM.

In the case of `O=C(c1cccc(Cl)c1F)N1CCS(=O)(=O)C(c2cccs2)C1` (stereo not shown) [Compound 14a, (3-chloro-2-fluoro-phenyl)-[1,1-dioxo-2-(2-thienyl)-1,4-thiazinan-4-yl]methanone], the EC50 under setting [1] was > 5000 nM.
